# Entries after “also recorded” stand apart in the source; their conditions may differ. Like-named read-outs stand apart in the source and are kept apart here.
# Tests used:
# Human monocytes = assay: Monocyte chemotaxis in 48-well microchemotaxis chamber; format: cell-based; conditions: for effect on monocyte chemotaxis induced by C-peptide: cells exposed 30 minutes before assay, C-peptide 0.1-10 nmol/L, antibodies 1:1000; for effect on monocyte chemotaxis induced by C-peptide / effect on monocyte chemotaxis in response to VGVAPG: sugars 1 mmol/L; for induction of monocyte chemotaxis: stimulus in lower wells
# Protocol: Human monocytes are isolated from freshly drawn blood of healthy volunteers using serial Ficoll/Percoll gradient centrifugation, as described elsewhere. Cells are cultured for 16 hours in RPMI-1640 media supplemented with 0.5% human serum to become quiescent after isolation. Purity of the cells is >95% as determined by flow cytometry analysis. Monocyte chemotaxis is assayed in a 48-well microchemotaxis chamber (Neuroprobe, Gaithersburg, Md.) in serum-free media. Wells in the upper and lower chamber are separated by a polyvinylpyrrolidone-free polycarbonate membrane (pore size 5 μm; Costar). Freshly isolated monocytes at a density of 5×10^5/mL are incubated for 2.5 hours with recombinant C-peptide (Sigma), before migrated cells on the bottom face of the filter are stained and counted under the light microscope. Maximal chemotactic activity is measured with 0.1 mmol/L N-formyl-methionyl-leucyl-phenylalanine (f-MLF; Sigma Chemical Co), and checkerboard analysis is used to distinguish chemotaxis from chemokinesis. Inhibition of chemotaxis is tested by competition with VGVAPG, a repetitive peptide sequence found in human and bovine elastin (Sigma Chemical Co), and BA-4, an antielastin-blocking antibody. Controls for BA-4 include mouse immunoglobulin G (IgG; PharMingen, San Diego, Calif.). Exposure of cells to lactose is used to specifically dissociate the 67-kD EBP. Controls for lactose included glucose, fructose, and mannose, none of which affect the 67-kD EBP. In each case, monocytes cells are exposed to the relevant concentrations of SEQ ID NO:41 (VGVAPG) (10-9 to 10-5 mol/L), antibodies (1:1000), or sugars (1 mmol/L) for 30 minutes before the chemotaxis assays are started. […] Monocytes in the upper wells of the assay chamber are exposed to varying concentrations of SEQ ID NO:41 (VGVAPG) for 30 minutes before stimulation by human recombinant C-peptide (0.1 nmol/L-10 nmol/L) in the lower wells. […] C-peptide-derived chemotactic activity is eliminated by competition with […]=SEQ ID NO:41 (VGVAPG), a repetitive peptide found in human elastin that binds to cellular elastin receptors, and decreases in the presence of BA-4, a monoclonal antibody that can block elastin peptide mediated chemotactic activity. Monocyte chemotaxis in response to both SEQ ID NO:41 (VGVAPG) and C-peptide is abolished in the presence of lactose, a galactosugar that specifically dissociates the 67-kD EBP, but it is unaffected by glucose, fructose, or mannose. […] Chemotaxis is also assayed by a double micropore membrane system in modified Boyden chambers. The lower compartment containing 180 micro-l of C-peptide or fragments thereof at various concentrations is separated from the upper compartment containing 200 micro-1 of cell suspension ([…] cells, such as endothelial cells or smooth muscle cells or pericytes or keratinocytes of fibroblasts or leukocytes per ml medium) by a 10 micro-m polycarbonate membrane (Millipore, Bedford, Mass.). The membranes are presoaked in bovine type I collagen (25 micro-g phosphate-buffered saline per ml) (Chemicon International, Temecula, Calif.) for 24 h at room temperature to facilitate the attachment of cells. The chambers are incubated for 18 h at 37° C. in 5% CO2-balanced air. The chambers are then disassembled, and the membrane pairs are stained with hematoxylin. The cell number of a number, such as five, random and nonoverlapping fields under a microscope is counted. For all experiments, medium alone in the bottom chamber may serve as the baseline control. To confirm directed cell migration, the concentration gradient between the upper and lower compartments may be abolished by adding various doses of elastin to the cell suspension. Chemotaxis is assayed as described above. Chemotaxis may also be studied in an ex vivo aortic ring assay measuring endothelial cell migration and proliferation
# CD4+ immune cells = assay: Boyden chamber migration of CD4+ immune cells; format: cell-based; conditions: for reduction/inhibition of C-peptide specific biological activity: preliminary
# Protocol: Human monocytes are isolated from freshly drawn blood of healthy volunteers using serial Ficoll/Percoll gradient centrifugation, as described elsewhere. Cells are cultured for 16 hours in RPMI-1640 media supplemented with 0.5% human serum to become quiescent after isolation. Purity of the cells is >95% as determined by flow cytometry analysis. Monocyte chemotaxis is assayed in a 48-well microchemotaxis chamber (Neuroprobe, Gaithersburg, Md.) in serum-free media. Wells in the upper and lower chamber are separated by a polyvinylpyrrolidone-free polycarbonate membrane (pore size 5 μm; Costar). Freshly isolated monocytes at a density of 5×10^5/mL are incubated for 2.5 hours with recombinant C-peptide (Sigma), before migrated cells on the bottom face of the filter are stained and counted under the light microscope. Maximal chemotactic activity is measured with 0.1 mmol/L N-formyl-methionyl-leucyl-phenylalanine (f-MLF; Sigma Chemical Co), and checkerboard analysis is used to distinguish chemotaxis from chemokinesis. […] Controls for BA-4 include mouse immunoglobulin G (IgG; PharMingen, San Diego, Calif.). Exposure of cells to lactose is used to specifically dissociate the 67-kD EBP. Controls for lactose included glucose, fructose, and mannose, none of which affect the 67-kD EBP. In each case, monocytes cells are exposed to the relevant concentrations of SEQ ID NO:41 (VGVAPG) (10-9 to 10-5 mol/L), antibodies (1:1000), or sugars (1 mmol/L) for 30 minutes before the chemotaxis assays are started. […] Chemotaxis is also assayed by a double micropore membrane system in modified Boyden chambers. […] The membranes are presoaked in bovine type I collagen (25 micro-g phosphate-buffered saline per ml) (Chemicon International, Temecula, Calif.) for 24 h at room temperature to facilitate the attachment of cells. The chambers are incubated for 18 h at 37° C. in 5% CO2-balanced air. The chambers are then disassembled, and the membrane pairs are stained with hematoxylin. The cell number of a number, such as five, random and nonoverlapping fields under a microscope is counted. For all experiments, medium alone in the bottom chamber may serve as the baseline control. To confirm directed cell migration, the concentration gradient between the upper and lower compartments may be abolished by adding various doses of elastin to the cell suspension. Chemotaxis is assayed as described above.
# elastin receptor = biological target: T1, elastin receptor (Homo sapiens, UniProt P16278); conditions: cited from earlier work
# T1 sequence (P16278 29-546 isoform P16278-2 limits assumed): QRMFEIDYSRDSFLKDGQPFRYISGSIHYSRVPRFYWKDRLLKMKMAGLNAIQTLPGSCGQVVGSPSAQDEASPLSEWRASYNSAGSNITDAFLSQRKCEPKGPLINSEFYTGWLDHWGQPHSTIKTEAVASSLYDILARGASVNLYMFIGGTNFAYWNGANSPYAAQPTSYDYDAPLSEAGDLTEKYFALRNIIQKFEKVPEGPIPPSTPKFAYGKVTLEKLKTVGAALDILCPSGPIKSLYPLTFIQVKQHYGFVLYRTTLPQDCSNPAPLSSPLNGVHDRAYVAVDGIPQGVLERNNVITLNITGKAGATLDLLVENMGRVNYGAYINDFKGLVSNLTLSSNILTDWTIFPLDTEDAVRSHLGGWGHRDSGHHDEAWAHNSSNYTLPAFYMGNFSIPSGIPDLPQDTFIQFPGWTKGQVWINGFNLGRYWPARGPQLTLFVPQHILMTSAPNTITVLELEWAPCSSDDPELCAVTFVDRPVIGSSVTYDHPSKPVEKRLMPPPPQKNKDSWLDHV
# [1] = system: 30 mM glucose-induced vascular dysfunction in rats; conditions: cited from earlier work; for normalization/prevention of glucose-induced vascular dysfunction: 30 mM glucose, rats; for potency relative to native C-peptide: vascular dysfunction model
# [2] = in vivo; cited from earlier work
# [3] = system: arteriosclerotic lesion development; conditions: mice; cited from earlier work
# [4] = system: cell membrane-bound C-peptide; conditions: cited from earlier work
# Na(+),K(+)-ATPase = conditions: cited from earlier work
# [5] = system: MAP kinase signalling pathways; conditions: cited from earlier work
# [6] = system: human renal tubular cells; conditions: cited from earlier work
# Na^+K^+ATPase = conditions: rat renal tubule cells; cited from earlier work
compound,measurement,setting,value
O=C(CO)[C@@H](O)[C@H](O)[C@H](O)CO [fructose],effect on monocyte chemotaxis induced by C-peptide,Human monocytes,unaffected
same,effect on monocyte chemotaxis in response to VGVAPG,Human monocytes,unaffected
OC[C@H]1O[C@@H](O[C@H]2[C@H](O)[C@@H](O)C(O)O[C@@H]2CO)[C@H](O)[C@@H](O)[C@H]1O (stereo partly shown) [lactose],reduction/inhibition of C-peptide specific biological activity,CD4+ immune cells; in vitro,reduction of C-peptide specific biological activity
same,effect on monocyte chemotaxis induced by C-peptide,Human monocytes,abolished
same,effect on monocyte chemotaxis in response to VGVAPG,Human monocytes,abolished
same,antagonism of elastin peptide (ERC-ligand) binding to elastin receptor/EBP,elastin receptor,inhibited; also recorded: antagonized
same,antagonism of elastin peptide (ERC-ligand) binding to elastin receptor/EBP,elastin receptor; listed as Lactose,antagonise elastin peptide binding
D-EAEDLQVGQVELGGGPGAGSLQPLALEGSLQ (all D-amino acids) [enantio C-peptide],normalization/prevention of glucose-induced vascular dysfunction,[1],biologically active
same,potency relative to native C-peptide,[1],equipotent to native C-peptide
DLQVGQVELGGGPGAGSLQPL [SEQ ID NO:20],normalization/prevention of glucose-induced vascular dysfunction,[1],significant normalization
DLQVGQVELGGGPGAGSLQPLALEGSLQ [SEQ ID NO:10],normalization/prevention of glucose-induced vascular dysfunction,[1],significant normalization
EAEDLQVGQVELGGGPGAGSLQPL (EAEDLQVGQVELGGGPGAGSLQPLAL) [SEQ ID NO:17],normalization/prevention of glucose-induced vascular dysfunction,[1],significant normalization
EAEDLQVGQVELGGGPGAGSLQPLALEGSLQ [C-peptide],increase of migration of CD4+ immune cells,"CD4+ immune cells; C-peptide at 10 nM, 1% serum medium, in vitro",100%
same,checkerboard analysis: chemotaxis versus chemokinesis,Human monocytes,stimulates chemotaxis without a chemokinetic effect
same,induction of monocyte chemotaxis,Human monocytes,stimulates a concentration-dependent increase in monocyte migration
same,half-life,[2],30 min
same,plasma half-life,[2],~30 min
same,arteriosclerotic lesion development / atherogenicity,[3],promote experimental arteriosclerotic lesion development in mice; also recorded: atherogenic in mice
"EAENPQAGAVELGGGLGGLQALALEGPPQ [pig C-peptide, pig C-peptide, midportion LGGGLG]",normalization/prevention of glucose-induced vascular dysfunction,[1],inactive
EGSLQ [SEQ ID NO:6],displacement of cell membrane-bound C-peptide,[4],displaces cell membrane-bound C-peptide
same,"Na(+),K(+)-ATPase","Na(+),K(+)-ATPase",stimulates
same,MAP kinase signalling pathways,[5],stimulates MAP kinase signalling pathways
same,intracellular Ca2+,[6],increases intracellular Ca(2+)
same,intracellular Ca2+,[6]; listed as SEQ NO:6,may induce intracellular Ca2+ increases
ELGGGPGAG [SEQ ID NO:9],Na+K+ATPase activity,Na^+K^+ATPase,stimulate
ELGGGPGAGSLQPL [SEQ ID NO:176],normalization/prevention of glucose-induced vascular dysfunction,[1],significant normalization
"EVEDPQVPQLELGGGPEAGDLQTLALEVARQ [Rat C-peptide, rat C-peptide comprising hexapeptide LGGGPE]",normalization/prevention of glucose-induced vascular dysfunction,[1],active
GGGPGAG [SEQ ID NO:8],normalization/prevention of glucose-induced vascular dysfunction,[1],normalize glucose-induced vascular dysfunction
GQVELGGGPGAGSLQPLALEGSLQ [SEQ ID NO:13],normalization/prevention of glucose-induced vascular dysfunction,[1],significant normalization
LGGGPGAGSLQPLALEGSLQ [SEQ ID NO:14],normalization/prevention of glucose-induced vascular dysfunction,[1],significant normalization
QLSGELALPQLSGAGPGGGLEVQGVQLDEAE (retro C-Peptide),normalization/prevention of glucose-induced vascular dysfunction,[1],biologically active
same,potency relative to native C-peptide,[1],equipotent to native C-peptide
VGQVELGGGPGAGSLQPL [SEQ ID NO:175],normalization/prevention of glucose-induced vascular dysfunction,[1],significant normalization
VGVAPG [SEQ ID NO:41],concentration of maximal chemotactic activity,Human monocytes,0.1 mmol/L
same,effect on monocyte chemotaxis induced by C-peptide,Human monocytes,eliminates monocyte chemotaxis induced by C-peptide
same,effect of preincubation on chemotactic response to f-MLF,Human monocytes; preincubation of monocytic cells,does not alter the chemotactic response to f-MLF
same,chemotactic potency compared with f-MLF,Human monocytes; same concentration of f-MLF,considerably more potent than the same concentration of f-MLF
same,induction of monocyte chemotaxis,Human monocytes,induces chemotaxis in a concentration-dependent manner
same,binding to elastin receptor,elastin receptor,binding has been demonstrated
same,arteriosclerotic lesion development / atherogenicity,[3],promote experimental arteriosclerotic lesion development in mice
VVGSPSAQDEASPL [V14 peptide],C-peptide-induced CD4-migration antagonized and diminished,"CD4+ immune cells; V14-peptide at 1.3 microM, C-peptide at 10 nM",> 50%
same,reduction/inhibition of C-peptide specific biological activity,CD4+ immune cells; in vitro,inhibition of bioactivity of C-peptide
same,antagonism of elastin peptide (ERC-ligand) binding to elastin receptor/EBP,elastin receptor,antagonise elastin peptide binding; also recorded: inhibited; also recorded: antagonized

# Source: patent US20200087374A1, “INTERACTION BETWEEN C-PEPTIDES AND ELASTIN RECEPTOR, A MODEL FOR UNDERSTANDING VASCULAR DISEASE” (Resiliun B.V., priority 2017, published 2020)
